The results in this text go back to US9707234B2, “Spirocyclic hetercycle compounds useful as HIV integrase inhibitors” (MERCK SHARP & DOHME CORP., priority 2013, dated 2017).

The test has as its system HIV-1 (H9IIIB or NL4-3 virus) replication in MT4-GFP cells. Briefly: microbe, parasite or virus in culture. It is filed as cell-based. Conditions: inhibition of reproductive ratio R0, 48-72 h post-infection.
The mark [1] stands for this setting: Human immunodeficiency virus 1, NL43, MT4-GFP cells infected with HIV-1, 100% normal human serum, read-out: ViKinG IP (nM) with 100% NHS.
Setting [2] is: Human immunodeficiency virus 1, NL43, MT4-GFP cells infected with HIV-1, serum free conditions (0% NHS), read-out: ViKinG IP (nM) with 0% NHS.
Setting [3] is: MT4-GFP cells infected with HIV-1, 100% normal human serum, read-out: ViKinG IP (nM) with 100% NHS.
Setting [4] is: MT4-GFP cells infected with HIV-1, serum free conditions (0% NHS), read-out: ViKinG IP (nM) with 0% NHS.
[5] abbreviates: Human immunodeficiency virus 1, NL43, MT4-GFP cells infected with HIV-1, 10% normal human serum, read-out: ViKinG IP (nM) with 10% NHS.

Read-outs that look alike come from different tables or passages of the source.

As for `CCOC(=O)N1CCC2(CC1)Cn1cc(-c3nnc(Cc4ccc(F)cc4F)s3)c(=O)c(O)c1C(=O)N2C` [Compound 94], the IC50 stood at 116 nM under setting [1] and 10.6 nM under setting [2].

Take `CCN1C(=O)c2c(O)c(=O)c(C(=O)NCc3ccc(F)cc3F)cn2CC12CCCOC2` (stereo not shown) [Compound 82]: the IC50 by setting is: under setting [3], 680 nM; under setting [4], 3.1 nM.

On to `CN1C(=O)c2c(O)c(=O)c(-c3nnc(Cc4ccc(F)cc4F)s3)cn2N(C)C12CCNC(=O)CC2` (stereo not shown) [Compound 28], for which the IC50 was 122 nM under setting [5], 679 nM under setting [1] and 53.5 nM under setting [2].

For the compound `CN1C(=O)c2c(O)c(=O)c(-c3nnc(Cc4ccc(F)cc4F)s3)cn2CC12CCNCC2` [Compound 93], the IC50 under setting [5] was 114 nM and the IC50 under setting [2] amounted to 73.9 nM.

For the compound `CN1C(=O)c2c(O)c(=O)c(C(=O)NCc3c(F)cccc3F)cn2N(C)C12CCOC2` (single isomer, unassigned) [Compound 115], the IC50 came to 54 nM under setting [1] and 1.2 nM under setting [2].

`CN1C(=O)c2c(O)c(=O)c(C(=O)NCc3ccc(F)cc3)cn2CC12CCOC2` (single isomer, unassigned) [Compound 60]: the IC50 by setting is: under setting [3], 42 nM; under setting [4], 3.1 nM.

Consider `CN1C(=O)c2c(O)c(=O)c(C(=O)NCc3ccc(F)c(Cl)c3)cn2N(C)C12CCOC2` (single isomer, unassigned) [Compound 108], for which the IC50 by setting is: under setting [3], 218 nM; under setting [4], 1.1 nM.

As for `CCN1C(=O)c2c(O)c(=O)c(C(=O)NCc3ccc(F)cc3F)cn2N(C)C12CCNC2` (single isomer, unassigned) [Compound 172], the IC50 by setting is: under setting [3], 61 nM; under setting [4], 1.6 nM.

For `COCCCN1n2cc(C(=O)NCc3ccc(F)cc3F)c(=O)c(O)c2C(=O)N(C)C12CCOC2` (single isomer, unassigned) [Compound 157], the IC50 reads like this: under setting [1], 111 nM; under setting [4], 2.5 nM.

Take `CN1C(=O)c2c(O)c(=O)c(-c3nnc(Cc4ccc(F)cc4F)s3)cn2N(C)C12CCOCC2` [Compound 22]: the IC50 under setting [5] was 47 nM and the IC50 under setting [1] amounted to 731 nM.

In the case of `CCN1C(=O)c2c(O)c(=O)c(-c3nnc(Cc4ccc(F)cc4F)s3)cn2N(C)C12CCN(S(C)(=O)=O)CC2` [Compound 12], the IC50 reads like this: under setting [5], 24 nM; under setting [1], 126 nM.

For `COCCCN1C(=O)c2c(O)c(=O)c(C(=O)NCc3ccc(F)cc3F)cn2CC12CCCOC2` (single isomer, unassigned) [Compound 85], the IC50 reads like this: under setting [2], 5.4 nM; under setting [3], 78 nM.

`COCCCN1C(=O)c2c(O)c(=O)c(C(=O)NCc3ccc(F)cc3F)cn2CC12CCOC2` (single isomer, unassigned) [Compound 74]: the IC50 reads like this: under setting [3], 28 nM; under setting [4], 3.3 nM.

Regarding `CN1C(=O)c2c(O)c(=O)c(-c3nnc(Cc4ccc(F)cc4F)s3)cn2N(C)C12CCCNCC2` (stereo not shown) [Compound 34], the IC50 was determined as 34 nM under setting [5] and 9.7 nM under setting [2].

Turning to `COCCCN1C(=O)c2c(O)c(=O)c(C(=O)NCc3ccc(F)cc3F)cn2N(C)C12CCOC2` (single isomer, unassigned) [Compound 124], the IC50 turned out to be 22 nM (MT4-GFP cells infected with HIV-1, 10% normal human serum, read-out: ViKinG IP (nM) with 10% NHS); 309 nM under setting [3]; 1.8 nM under setting [4].

Take `COCCCN1C(=O)c2c(O)c(=O)c(C(=O)NCc3ccc(F)cc3F)cn2N(C)C12COC2` [Compound 145]: the IC50 stood at 174 nM under setting [1] and 1.4 nM under setting [2].

Take `CCOCCN1C(=O)c2c(O)c(=O)c(C(=O)NCc3ccc(F)cc3F)cn2CC12CCOCC2` [Compound 44]: the IC50 is 57 nM under setting [1] and 5.8 nM under setting [2].

For `CN1C(=O)c2c(O)c(=O)c(-c3nnc(Cc4ccc(F)cc4F)s3)cn2CC12CCOC2` (stereo not shown) [Compound 101], the IC50 is 70 nM under setting [1] and 4.6 nM under setting [2].

On to `CN1C(=O)c2c(O)c(=O)c(C(=O)NCc3ccccc3F)cn2N(C)C12CCOC2` (single isomer, unassigned) [Compound 112], for which the IC50 worked out at 231 nM under setting [3] and 0.9 nM under setting [4].

On to `CCN1C(=O)c2c(O)c(=O)c(-c3nnc(Cc4ccc(F)cc4F)s3)cn2N(C)C12CCCOC2` (stereo not shown) [Compound 37], for which the IC50 under setting [1] came to 456 nM and the IC50 under setting [2] stood at 5.3 nM.

On to `CCN1C(=O)c2c(O)c(=O)c(-c3nnc(Cc4ccc(F)cc4)s3)cn2N(C)C12CCN(C(=O)OCc1ccccc1)CC2` [Compound 11], for which the IC50 under setting [5] worked out at 31 nM and the IC50 under setting [1] came to 359 nM.

On to `COCCN1C(=O)c2c(O)c(=O)c(C(=O)NCc3ccc(F)c(F)c3F)cn2CC12CCOC2` (single isomer, unassigned) [Compound 71], for which the IC50 came out at 350 nM under setting [1] and 3.7 nM under setting [2].

As to `CCOCCN1C(=O)c2c(O)c(=O)c(C(=O)NCc3ccc(F)cc3F)cn2N(C)C12COC2` [Compound 146], the IC50 is 485 nM under setting [1] and 10.9 nM under setting [2].

For `CCOC(=O)N1CCC2(CC1)N(CC)C(=O)c1c(O)c(=O)c(-c3nnc(Cc4ccc(F)cc4F)s3)cn1N2C` [Compound 6], the IC50 by setting is: under setting [5], 13 nM; under setting [1], 159 nM.

Regarding `CN1C(=O)c2c(O)c(=O)c(C(=O)NCc3ccc(F)cc3F)cn2CC12COC2` [Compound 68], the IC50 reads like this: under setting [1], 134 nM; under setting [2], 7.6 nM.

As to `CN1C(=O)c2c(O)c(=O)c(C(=O)NCc3ccc(F)cc3F)cn2CC12CCOC2` (single isomer, unassigned) [Compound 58], the IC50 under setting [5] came to 5 nM, the IC50 under setting [3] worked out at 27 nM and the IC50 under setting [4] turned out to be 1.9 nM.

With `CC1OCCC12N(C)C(=O)c1c(O)c(=O)c(C(=O)NCc3ccc(F)cc3F)cn1N2C` (single isomer, unassigned) [Compound 132], the IC50 under setting [3] stood at 77 nM.

Turning to `CCC(c1nnc(-c2cn3c(c(O)c2=O)C(=O)N(CC)C2(CCOCC2)C3)s1)c1ccc(F)cc1F` (stereo not shown) [Compound 100], the IC50 was 704 nM under setting [1] and 29.2 nM under setting [2].

Turning to `CCN1C(=O)c2c(O)c(=O)c(C(=O)NCc3ccc(F)cc3F)cn2N(C)C12CCNC2` (single isomer, unassigned) [Compound 171], the IC50 runs as follows: under setting [1], 88 nM; under setting [2], 1.8 nM.

In the case of `CCN1C(=O)c2c(O)c(=O)c(-c3nnc(Cc4ccc(F)cc4F)s3)cn2N(C)C12CCN(C(=O)OC(C)C)CC2` [Compound 9], the IC50 by setting is: under setting [1], 344 nM; under setting [2], 89.7 nM.

Turning to `CN1C(=O)c2c(O)c(=O)c(C(=O)NCc3ccc(F)c(Cl)c3F)cn2CC12CCOC2` (single isomer, unassigned) [Compound 56], the IC50 under setting [1] was 100 nM and the IC50 under setting [2] amounted to 1.2 nM.
